{
  "source": "PubChem BioAssay AID248",
  "about": "(DTP/NCI, 2004)",
  "tested_on": "L1210 leukemia ip in BDF1 mice, survival T/C",
  "assay": "NCI In Vivo Anticancer Drug Screen. Data for tumor model L1210 Leukemia (intraperitoneal) in B6D2F1 (BDF1) mice",
  "conditions": "endpoint: mean survival time, higher = longer survival",
  "summary_of_the_method": "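Transplanted-tumor mice were given test agent; controls received vehicle only. Survival readings from the two groups were divided (treated over control).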",
  "key": {"[1]": {"conditions": "dose: 100.0 mg/kg/injection, schedule: Q01DX001 (ip), vehicle: saline"}, "[2]": {"conditions": "dose: 200.0 mg/kg/injection, schedule: Q01DX001 (ip), vehicle: saline"}, "[3]": {"conditions": "dose: 400.0 mg/kg/injection, schedule: Q01DX001 (ip), vehicle: saline"}, "[4]": {"conditions": "dose: 100.0 mg/kg/injection, schedule: Q04DX003 (ip), vehicle: saline"}, "[5]": {"conditions": "dose: 200.0 mg/kg/injection, schedule: Q04DX003 (ip), vehicle: saline"}, "[6]": {"conditions": "dose: 400.0 mg/kg/injection, schedule: Q04DX003 (ip), vehicle: saline"}},
  "note": "“And” between values parts separate entries of the source, which are not always exact repeats. Equal values may be shown once. Inconclusive results and toxic doses are left out.",
  "data": [
    {"smiles": "c1nc(SC2CCCC2)c2[nH]cnc2n1", "values": [
      {"measurement": "T/C", "setting": "dose: 5.0 mg/kg/injection, schedule: Q01DX Z (ip), vehicle: carboxymethylcellulose (CMC)", "value": "106 % of control"},
      {"measurement": "T/C", "setting": "dose: 10.0 mg/kg/injection, schedule: Q01DX Z (ip), vehicle: carboxymethylcellulose (CMC)", "value": "103 % of control"},
      {"measurement": "T/C", "setting": "dose: 10.0 mg/kg/injection, schedule: Q01DX Z (oral), vehicle: carboxymethylcellulose (CMC)", "value": "108 % of control"},
      {"measurement": "T/C", "setting": "dose: 21.0 mg/kg/injection, schedule: Q01DX Z (ip), vehicle: carboxymethylcellulose (CMC)", "value": "112 % of control"},
      {"measurement": "T/C", "setting": "dose: 21.0 mg/kg/injection, schedule: Q01DX Z (oral), vehicle: carboxymethylcellulose (CMC)", "value": "108 % of control"},
      {"measurement": "T/C", "setting": "dose: 25.0 mg/kg/injection, schedule: Q01DX009 (ip), vehicle: carboxymethylcellulose (CMC)", "value": "115 % of control"},
      {"measurement": "T/C", "setting": "dose: 42.0 mg/kg/injection, schedule: Q01DX Z (ip), vehicle: carboxymethylcellulose (CMC)", "value": "112 % of control"},
      {"measurement": "T/C", "setting": "dose: 42.0 mg/kg/injection, schedule: Q01DX Z (oral), vehicle: carboxymethylcellulose (CMC)", "value": "106 % of control"},
      {"measurement": "T/C", "setting": "dose: 42.5 mg/kg/injection, schedule: Q01DX Z (ip), vehicle: carboxymethylcellulose (CMC)", "value": "122 % of control"},
      {"measurement": "T/C", "setting": "dose: 50.0 mg/kg/injection, schedule: Q01DX009 (ip), vehicle: carboxymethylcellulose (CMC)", "value": "119 % of control"},
      {"measurement": "T/C", "setting": "dose: 84.0 mg/kg/injection, schedule: Q01DX Z (oral), vehicle: carboxymethylcellulose (CMC)", "value": "150 % of control"},
      {"measurement": "T/C", "setting": "dose: 85.0 mg/kg/injection, schedule: Q01DX Z (ip), vehicle: carboxymethylcellulose (CMC)", "value": "163 % of control"},
      {"measurement": "T/C", "setting": "dose: 176.0 mg/kg/injection, schedule: Q01DX001 (ip), vehicle: carboxymethylcellulose (CMC)", "value": "98 % of control"},
      {"measurement": "T/C", "setting": "dose: 264.0 mg/kg/injection, schedule: Q01DX001 (ip), vehicle: carboxymethylcellulose (CMC)", "value": "100 % of control"},
      {"measurement": "T/C", "setting": "dose: 340.0 mg/kg/injection, schedule: Q01DX Z (ip), vehicle: carboxymethylcellulose (CMC)", "value": "110 % of control"},
      {"measurement": "T/C", "setting": "dose: 340.0 mg/kg/injection, schedule: Q01DX Z (oral), vehicle: carboxymethylcellulose (CMC)", "value": "152 % of control"},
      {"measurement": "T/C", "setting": "dose: 400.0 mg/kg/injection, schedule: Q01DX001 (ip), vehicle: carboxymethylcellulose (CMC)", "value": "93 % of control"}
    ]},
    {"smiles": "CCOC(=O)Cc1cc(Cl)c2cc(C)ccc2n1", "values": [
      {"measurement": "T/C", "setting": "[1]", "value": "92 % of control"},
      {"measurement": "T/C", "setting": "[2]", "value": "100 % of control"},
      {"measurement": "T/C", "setting": "[3]", "value": "103 % of control and 89 % of control"}
    ]},
    {"smiles": "CCCCN(CCCl)C1c2ccccc2-c2ccccc21", "values": [
      {"measurement": "T/C", "setting": "dose: 25.0 mg/kg/injection, schedule: Q04DX002 (ip), vehicle: Klucel (hydroxypropylcellulose) (HPC)", "value": "106 % of control"},
      {"measurement": "T/C", "setting": "dose: 50.0 mg/kg/injection, schedule: Q04DX002 (ip), vehicle: Klucel (hydroxypropylcellulose) (HPC)", "value": "95 % of control"}
    ]},
    {"smiles": "CCOC(=O)NC(=O)Nc1ncn[nH]1", "values": [
      {"measurement": "T/C", "setting": "[4]", "value": "97 % of control"},
      {"measurement": "T/C", "setting": "[5]", "value": "94 % of control"},
      {"measurement": "T/C", "setting": "[6]", "value": "94 % of control"}
    ]},
    {"smiles": "COc1ccc(C(=S)N(C)c2ccccc2)cc1", "values": [
      {"measurement": "T/C", "setting": "dose: 100.0 mg/kg/injection, schedule: Q04DX003 (ip), vehicle: gum acacia", "value": "96 % of control"},
      {"measurement": "T/C", "setting": "dose: 200.0 mg/kg/injection, schedule: Q04DX003 (ip), vehicle: gum acacia", "value": "93 % of control"},
      {"measurement": "T/C", "setting": "dose: 400.0 mg/kg/injection, schedule: Q04DX003 (ip), vehicle: gum acacia", "value": "95 % of control"}
    ]},
    {"smiles": "Cc1cc(Br)nc2ccccc12", "values": [
      {"measurement": "T/C", "setting": "[1]", "value": "92 % of control"},
      {"measurement": "T/C", "setting": "[2]", "value": "89 % of control"},
      {"measurement": "T/C", "setting": "[3]", "value": "97 % of control"}
    ]},
    {"smiles": "CNCCNCC(Cc1ccccc1)c1ccccc1", "note": "(stereo unspecified)", "values": [
      {"measurement": "T/C", "setting": "dose: 25.0 mg/kg/injection, schedule: Q04DX002 (ip), vehicle: saline", "value": "107 % of control"},
      {"measurement": "T/C", "setting": "dose: 50.0 mg/kg/injection, schedule: Q04DX002 (ip), vehicle: saline", "value": "97 % of control"},
      {"measurement": "T/C", "setting": "dose: 100.0 mg/kg/injection, schedule: Q04DX002 (ip), vehicle: saline", "value": "97 % of control"}
    ]},
    {"smiles": "CC(=O)OCc1cccc(C)n1", "values": [
      {"measurement": "T/C", "setting": "dose: 100.0 mg/kg/injection, schedule: Q01DX009 (ip), vehicle: saline", "value": "97 % of control"},
      {"measurement": "T/C", "setting": "[4]", "value": "94 % of control and 102 % of control"},
      {"measurement": "T/C", "setting": "dose: 200.0 mg/kg/injection, schedule: Q01DX009 (ip), vehicle: saline", "value": "96 % of control"},
      {"measurement": "T/C", "setting": "[5]", "value": "100 % of control"},
      {"measurement": "T/C", "setting": "dose: 400.0 mg/kg/injection, schedule: Q01DX009 (ip), vehicle: saline", "value": "100 % of control"},
      {"measurement": "T/C", "setting": "[6]", "value": "93 % of control and 97 % of control"}
    ]},
    {"smiles": "CC1(C)CCC(C)(C)c2cc(O)ccc21", "values": [
      {"measurement": "T/C", "setting": "[1]", "value": "94 % of control"},
      {"measurement": "T/C", "setting": "dose: 100.0 mg/kg/injection, schedule: Q04DX003 (ip), vehicle: Klucel (hydroxypropylcellulose) (HPC)", "value": "92 % of control"},
      {"measurement": "T/C", "setting": "[2]", "value": "96 % of control"},
      {"measurement": "T/C", "setting": "dose: 200.0 mg/kg/injection, schedule: Q04DX003 (ip), vehicle: Klucel (hydroxypropylcellulose) (HPC)", "value": "92 % of control"},
      {"measurement": "T/C", "setting": "[3]", "value": "89 % of control"},
      {"measurement": "T/C", "setting": "dose: 400.0 mg/kg/injection, schedule: Q04DX003 (ip), vehicle: Klucel (hydroxypropylcellulose) (HPC)", "value": "87 % of control"}
    ]}
  ]
}
